Measured values from US4428955A, “Benzopyran compounds, pharmaceutical compositions containing them and methods of use” (Boehringer Mannheim GmbH, priority 1981, dated 1984).

Tested on: antigen induced bronchospasm
Assay: Inhibition of antigen induced bronchospasm in passively sensitized guinea pigs
Type: in vivo, guinea pig
Details: 60 min before antigen, 3 min after antigen application
Method: The following tests were conducted to determine the effectiveness of the new compounds in the inhibition of antigen induced bronchospasm in passively sensitized guinea pigs.
The antigen is twice recrystallised egg albumin. Equal volumes of saline solution of antigen (5 mg/ml) and Freund's complete adjuvant were emulsified and 0.15 ml injected into each hind foot of adult male guinea pigs (DAVIES and JOHNSON: Int. Arch. Allergy 41, 648-654 (1971)).
The animals were bled and the pooled serum stored at -20° C.
Injections of 0.5 ml antiserum of 1:50 dilution were given i.v. 24-48 h before challenge.
Guinea pigs were anaesthetized with pentobarbitone sodium (40 mg/kg i.p.). Cannulae were tied into the trachea and the jugular vein and the lung inflated with a pump at a rate of 72 strokes/min and a constant stroke volume of 6-8 ml.
Bronchospasm, provoked by injecting ovalbumin i.v. was measured as described in COLLIER, H. O. J., J. A. HOLGATE, M. SCHACHTER: THE BRONCHOCONSTRICTOR ACTION OF BRADYKININ IN THE GUINEA-PIG. Brit. J. Pharmacol. 15, 290 (1960) and KONZETT, H. und R. ROSSLER: Versuchsanordnung zu Untersuchungen an der Bronchialmuskulatur. Naunyn-Schmiedebergs Arch. exp. Path. Pharmk. 195, 71-74 (1940)
Drugs were applied p.o. 60 min before antigen. For calculation the following formular was used: [formula]
b=Bronchospasm after antigen injection, measured in mm from tracing
m=maximum height of tracing in mm with arm of the trachea-cannula clamped
a=pre injection height of the tracing in mm
% inhibition of bronchospasm was calculated by comparing control groups with drug pretreated groups 3 min after antigen application.

| SMILES | % Inhibition of BrSp (bronchospasm) (0.75 mg/kg p.o.) [%] | % Inhibition of BrSp (bronchospasm) (0.38 mg/kg p.o.) [%] | % Inhibition of BrSp (bronchospasm) (1.5 mg/kg p.o.) [%] | % Inhibition of BrSp (bronchospasm) (3.0 mg/kg p.o.) [%] |
| --- | --- | --- | --- | --- |
| Cc1cc(=O)c2ccc(OCCCN3CCC(NC(=O)c4ccccc4C)CC3)cc2o1 [7-{3-[4-(2-methylbenzamido)-piperidino]-propoxy}-2-methyl-4H-1-benzopyran-4-one] | 60 |  |  |  |
| Cc1cc(=O)c2ccc(OCCCN3CCC(NC(=O)c4ccc(F)cc4)CC3)cc2o1 [7-{3-[4-(4-fluorobenzamido)-piperidino]-propoxy}-2-methyl-4H-1-benzopyran-4-one] |  | 46 |  |  |
| Cc1c(C)c2ccc(OCCCN3CCC(NC(=O)c4cccs4)CC3)cc2oc1=O [3,4-Dimethyl-7-{3-[4-(thiophene-2-carboxamido)-piperidino]-propoxy}-cumarin, reference compound] | 0 |  | 40 | 67 |
| Cc1cc(=O)c2ccc(OCCCN3CCC(NC(=O)c4ccccc4)CC3)cc2o1 [7-[3-(4-Benzamidopiperidino)-propoxy]-2-methyl-4H-1-benzopyran-4-one] | 64 | 55 |  |  |
